Reference: ChEMBL document CHEMBL2203270, “POMA analyses as new efficient bioinformatics' platform to predict and optimise bioactivity of synthesized 3a,4-dihydro-3H-indeno[1,2-c]pyrazole-2-carboxamide/carbothioamide analogues” (Bioorg Med Chem Lett, 2012)
≈ marks a conversion by molar mass, not a printed value. Calls of active or inactive are those of the source. No cut-off for these calls is given here.

Tests used:
Mus musculus [1] = assay: Anticonvulsant activity in mouse assessed as protection against clonic seizure at 100 mg/kg, ip measured at 2 hr; format: functional, organism-based; parameters: dose 100 mg/kg
Mus musculus [2] = assay: Neurotoxicity in mouse assessed as minimal motor impairment at 100 mg/kg, ip measured at 4 hr by rotarod test; format: toxicity, organism-based; parameters: dose 100 mg/kg, route intraperitoneal; conditions: in vivo
[3] = test system: Human immunodeficiency virus 1; assay: Antiviral activity against HIV-1 3B infected in MT4 cells assessed as inhibition of virus-induced cytopathicity; format: functional, organism-based; conditions: Human immunodeficiency virus 1, 3B
Mus musculus [4] = assay: Neurotoxicity in mouse assessed as minimal motor impairment at 100 mg/kg, ip measured at 0.25 hr by rotarod test; format: toxicity, organism-based; parameters: dose 100 mg/kg, route intraperitoneal; conditions: in vivo
[5] = test system: Human immunodeficiency virus 1; assay: Antiviral activity against HIV-1 3B infected in MT4 cells assessed as protection against virus-induced cytopathicity relative to control; format: functional; conditions: Human immunodeficiency virus 1, 3B
[6] = test system: Human immunodeficiency virus 2; assay: Antiviral activity against HIV-2 ROD infected in MT4 cells assessed as inhibition of virus-induced cytopathicity; format: functional, organism-based; conditions: Human immunodeficiency virus 2, ISOLATE ROD
Mus musculus [7] = assay: Neurotoxicity in mouse assessed as minimal motor impairment at 100 mg/kg, ip measured at 0.5 hr by rotarod test; format: toxicity, organism-based; parameters: dose 100 mg/kg, route intraperitoneal; conditions: in vivo
Mus musculus [8] = assay: Anticonvulsant activity in mouse assessed as protection against clonic seizure at 100 mg/kg, ip measured at 1 hr; format: functional
Mus musculus [9] = assay: Anticonvulsant activity in mouse assessed as protection against clonic seizure at 100 mg/kg, ip measured at 0.25 hr; format: functional
[10] = test system: Human immunodeficiency virus 2; assay: Antiviral activity against HIV-2 ROD infected in MT4 cells assessed as protection against virus-induced cytopathicity relative to control; format: functional; conditions: Human immunodeficiency virus 2, ISOLATE ROD
Mus musculus [11] = assay: Anticonvulsant activity in mouse assessed as protection against clonic seizure at 100 mg/kg, ip measured at 4 hr; format: functional, organism-based; parameters: dose 100 mg/kg
[12] = Cytotoxicity against mock-infected human MT4 cells assessed as decrease in cell viability by MTT assay; format: cell-based
Mus musculus [13] = assay: Neurotoxicity in mouse assessed as minimal motor impairment at 100 mg/kg, ip measured at 1 hr by rotarod test; format: toxicity, organism-based; parameters: dose 100 mg/kg, route intraperitoneal; conditions: in vivo
Mus musculus [14] = assay: Anticonvulsant activity in mouse assessed as protection against clonic seizure at 100 mg/kg, ip measured at 0.5 hr; format: functional
Mus musculus [15] = assay: Neurotoxicity in mouse assessed as minimal motor impairment at 100 mg/kg, ip measured at 2 hr by rotarod test; format: toxicity, organism-based; parameters: dose 100 mg/kg, route intraperitoneal; conditions: in vivo
Escherichia coli = assay: Antimicrobial activity against Escherichia coli NCIM 5051 by broth dilution technique; format: functional
Pseudomonas aeruginosa = assay: Antimicrobial activity against Pseudomonas aeruginosa ATCC 10145 by broth dilution technique; format: functional
Candida albicans = assay: Antimicrobial activity against Candida albicans NCIM 3471 by broth dilution technique; format: functional
Staphylococcus aureus = assay: Antimicrobial activity against Staphylococcus aureus NCIM 2079 by broth dilution technique; format: functional
Aspergillus niger = assay: Antimicrobial activity against Aspergillus niger NCIM 1196 by broth dilution technique; format: functional
Bacillus subtilis = assay: Antimicrobial activity against Bacillus subtilis NCIM 2439 by broth dilution technique; format: functional

Row | Compound | Activity (Mus musculus [1]) | Activity (Mus musculus [2]) | IC50 [3] [µM] | Activity (Mus musculus [4]) | Emax [5] [%] | IC50 [6] [µM] | Emax [10] [%] | CC50 [12] [µM] | MBC (Escherichia coli) [µg/mL] | MIC (Escherichia coli) [µg/mL] | MBC (Pseudomonas aeruginosa) [µg/mL] | MIC (Pseudomonas aeruginosa) [µg/mL] | MFC (Candida albicans) [µg/mL] | MIC (Candida albicans) [µg/mL] | MBC (Staphylococcus aureus) [µg/mL] | MIC (Staphylococcus aureus) [µg/mL] | MFC (Aspergillus niger) [µg/mL] | MIC (Aspergillus niger) [µg/mL] | MBC (Bacillus subtilis) [µg/mL] | MIC (Bacillus subtilis) [µg/mL] | other results
1 | COc1ccc(C2C3Cc4cc(OC)c(OC)cc4C3=NN2C(=O)Nc2ccc(F)c(Cl)c2)cc1OC (stereo unspecified) | inactive | Non-toxic | > 223 | Non-toxic | 12 | > 223 | 38 | 223 |  |  |  |  |  |  |  |  |  |  |  |  | Activity (Mus musculus [7]): Non-toxic; Activity (Mus musculus [8]; route intraperitoneal): 50%; Activity (Mus musculus [9]): inactive; Activity (Mus musculus [11]): inactive; Activity (Mus musculus [13]): Non-toxic; Activity (Mus musculus [14]; route intraperitoneal): 50%; Activity (Mus musculus [15]): Non-toxic
2 | COc1cc2c(cc1OC)C1=NN(C(=O)Nc3ccc(F)c(Cl)c3)C(c3ccccc3Cl)C1C2 (stereo unspecified) | inactive | Non-toxic | > 11.8 | Non-toxic | 5 | > 11.8 | 1 | 11.8 |  |  |  |  |  |  |  |  |  |  |  |  | Activity (Mus musculus [7]): Non-toxic; Activity (Mus musculus [8]): inactive; Activity (Mus musculus [9]; route intraperitoneal): 75%; Activity (Mus musculus [11]): inactive; Activity (Mus musculus [13]): Toxic; Activity (Mus musculus [14]): inactive; Activity (Mus musculus [15]): Non-toxic
3 | COc1cc2c(cc1OC)C1=NN(C(N)=S)C(c3ccc(F)cc3)C1C2 (stereo unspecified) |  |  | > 39.9 |  | 5 | > 39.9 | 9 | 39.9 | 8 (≈ 21.5 µM) | 4 (≈ 10.8 µM) | 8 (≈ 21.5 µM) | 4 (≈ 10.8 µM) | > 512 | 32 (≈ 86.2 µM) | 8 (≈ 21.5 µM) | 4 (≈ 10.8 µM) | > 512 | 64 (≈ 172 µM) | 8 (≈ 21.5 µM) | 4 (≈ 10.8 µM) | 
4 | COc1cc2c(cc1OC)C1=NN(C(N)=O)C(c3ccc(F)cc3)C1C2 (stereo unspecified) |  |  | > 151 |  | 3 | > 151 | 9 | 151 | 16 (≈ 45 µM) | 8 (≈ 22.5 µM) | 16 (≈ 45 µM) | 8 (≈ 22.5 µM) | > 512 | 128 (≈ 360 µM) | 16 (≈ 45 µM) | 8 (≈ 22.5 µM) | > 512 | 128 (≈ 360 µM) | 16 (≈ 45 µM) | 8 (≈ 22.5 µM) | 
5 | COc1cc2c(cc1OC)C1=NN(C(N)=S)C(c3ccccc3Cl)C1C2 (stereo unspecified) |  |  | > 6.87 |  | 0 | > 6.87 | 1 | 6.87 | 128 (≈ 330 µM) | 8 (≈ 20.6 µM) | 256 (≈ 660 µM) | 16 (≈ 41.2 µM) | > 512 | 64 (≈ 165 µM) | 128 (≈ 330 µM) | 16 (≈ 41.2 µM) | > 512 | 128 (≈ 330 µM) | 128 (≈ 330 µM) | 16 (≈ 41.2 µM) | 
6 | COc1ccc(C2C3Cc4cc(OC)c(OC)cc4C3=NN2C(N)=O)cc1 (stereo unspecified) |  |  | > 150 |  | 3 | > 150 | 6 | 150 | > 512 | 32 (≈ 87.1 µM) | > 512 | 64 (≈ 174 µM) | 2 (≈ 5.44 µM) | 2 (≈ 5.44 µM) | > 512 | 64 (≈ 174 µM) | 8 (≈ 21.8 µM) | 4 (≈ 10.9 µM) | > 512 | 128 (≈ 348 µM) | 
7 | COc1cc2c(cc1OC)C1=NN(C(N)=O)C(c3ccccc3Cl)C1C2 (stereo unspecified) |  |  | > 6.47 |  | 3 | > 6.47 | 3 | 6.47 | 256 (≈ 688 µM) | 16 (≈ 43 µM) | 256 (≈ 688 µM) | 16 (≈ 43 µM) | > 512 | 128 (≈ 344 µM) | 256 (≈ 688 µM) | 16 (≈ 43 µM) | > 512 | 256 (≈ 688 µM) | 256 (≈ 688 µM) | 16 (≈ 43 µM) | 
8 | COc1cc2c(cc1OC)C1=NN(C(N)=S)C(c3ccncc3)C1C2 (stereo unspecified) |  |  | > 36.9 |  | 2 | > 36.9 | 3 | 36.9 | > 512 | 32 (≈ 90.3 µM) | > 512 | 32 (≈ 90.3 µM) | > 512 | 128 (≈ 361 µM) | > 512 | 32 (≈ 90.3 µM) | > 512 | 128 (≈ 361 µM) | > 512 | 32 (≈ 90.3 µM) | 
9 | COc1cc2c(cc1OC)C1=NN(C(=O)Nc3ccc(F)c(Cl)c3)C(c3ccccc3)C1C2 (stereo unspecified) | inactive | Non-toxic | > 35.8 | Non-toxic | 7 | > 35.8 | 10 | 35.8 |  |  |  |  |  |  |  |  |  |  |  |  | Activity (Mus musculus [7]): Non-toxic; Activity (Mus musculus [8]): inactive; Activity (Mus musculus [9]; route intraperitoneal): 50%; Activity (Mus musculus [11]): inactive; Activity (Mus musculus [13]): Non-toxic; Activity (Mus musculus [14]): inactive; Activity (Mus musculus [15]): Non-toxic
10 | COc1ccc(C2C3Cc4cc(OC)c(OC)cc4C3=NN2C(N)=O)cc1OC (stereo unspecified) |  |  | > 151 |  | 6 | > 151 | 30 | 151 | > 512 | 64 (≈ 161 µM) | > 512 | 128 (≈ 322 µM) | 512 (≈ 1290 µM) | 32 (≈ 80.5 µM) | > 512 | 128 (≈ 322 µM) | 512 (≈ 1290 µM) | 32 (≈ 80.5 µM) | > 512 | 128 (≈ 322 µM) | 
11 | COc1cc2c(cc1OC)C1=NN(C(=O)Nc3ccc(Cl)cc3)C(c3ccccc3Cl)C1C2 (stereo unspecified) | inactive | Non-toxic | > 22.9 | Non-toxic | 2 | > 22.9 | 2 | 22.9 |  |  |  |  |  |  |  |  |  |  |  |  | Activity (Mus musculus [7]): Non-toxic; Activity (Mus musculus [8]; route intraperitoneal): 50%; Activity (Mus musculus [9]): inactive; Activity (Mus musculus [11]): inactive; Activity (Mus musculus [13]): Non-toxic; Activity (Mus musculus [14]; route intraperitoneal): 75%; Activity (Mus musculus [15]): Non-toxic
12 | COc1cc2c(cc1OC)C1=NN(C(N)=O)C(c3ccncc3)C1C2 (stereo unspecified) |  |  | > 40.4 |  | 4 | > 40.4 | 5 | 40.4 | > 512 | 8 (≈ 23.6 µM) | > 512 | 16 (≈ 47.3 µM) | > 512 | 256 (≈ 757 µM) | > 512 | 16 (≈ 47.3 µM) | > 512 | 256 (≈ 757 µM) | > 512 | 16 (≈ 47.3 µM) | 
